{
  "source": "patent US20090069302A1",
  "about": "(SMITHKLINE BEECHAM CORPORATION, priority 2006, published 2009)",
  "key": {"AXOR109": {"biological_target": "T1, AXOR109 (Homo sapiens, UniProt Q8TDU6)", "T1 construct": "expressed in transfected cells; host or cells: melanophore cells, transfected by electroporation", "T1 sequence (Q8TDU6 1-330)": "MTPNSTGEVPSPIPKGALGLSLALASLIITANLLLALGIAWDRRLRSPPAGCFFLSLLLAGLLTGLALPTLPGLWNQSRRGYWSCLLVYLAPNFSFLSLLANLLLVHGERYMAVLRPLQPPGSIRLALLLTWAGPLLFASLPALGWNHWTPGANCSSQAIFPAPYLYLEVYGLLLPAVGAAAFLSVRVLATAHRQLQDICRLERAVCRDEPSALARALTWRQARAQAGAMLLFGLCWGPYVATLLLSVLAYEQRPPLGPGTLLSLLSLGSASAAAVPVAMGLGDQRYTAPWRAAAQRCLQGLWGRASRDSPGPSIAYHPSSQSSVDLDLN", "assay": "Human AXOR109/Melanophore Assay", "assay_type": "cell-based", "conditions": "melanophore assay", "in_short": "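Readout is melanosome dispersion in melanophores electroporated with human AXOR109, in buffer containing 10 nM melatonin and 1% DMSO. Transmittance was read before and after 1 h compound exposure across 11-point 3-fold dilutions. Response was normalized to 200 nM alpha-MSH as system max, and pEC50 was obtained from a Hill fit.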"}, "GK rats [1]": {"test_system": "GK rats", "assay": "Glucose tolerance test in the chronic study in GK rats", "assay_type": "in vivo, rat", "conditions": "treated versus vehicle group, in words"}, "CD rats": {"test_system": "CD rats", "assay": "Effect on GLP-1 secretion in CD rats, intracolonic injection", "assay_type": "in vivo, rat", "conditions": "anesthetized CD rats, 2.5 mg intracolonic", "method": "Twelve ten week old (six per group) anesthetized normal CD rats were dosed with vehicle (0.5% HPMC/0.1% Tween80) or 2.5 mg Example 9 through intracolonic injection at 0 time point after a control blood sample was collected. Blood samples were collected at 5, 15, 30 and 60 minutes after dosing. Plasma active, and […] total GLP-1 were measured (ELISA kits, LINCO), and values were converted to % of controls. […] The results are listed in Tables 2a and 2b, and graphically represented in FIGS. 1a and 1b, respectively."}, "GK rats [2]": {"test_system": "GK rats", "assay": "Glucose tolerance test in the chronic study in GK rats", "assay_type": "in vivo, rat", "set-up": "glucose in glucose tolerance test: unit not given here", "conditions": "for glucose in glucose tolerance test: 0.3 mg/kg", "method": "(§1) The results are listed in Tables 4a and 4b, and graphically represented in FIGS. 3a and 3b, respectively.\nIn the same chronic study in GK rats as in Tables 4a and 4b, an intravenous glucose tolerance test was performed on days 1, 3, 9, and 16."}, "GK rats [3]": {"test_system": "GK rats", "assay": "Sixteen day chronic intracolonic dosing study in GK rats (insulin, glucose, glucagon)", "assay_type": "in vivo, rat", "conditions": "0.3 mg/kg QD intracolonic", "source_text": "as §1"}, "[4]": {"conditions": "0 min (control sample before dosing)"}},
  "data": [
    {"smiles": "COc1ccc(S(=O)(=O)N2CCCN(S(=O)(=O)c3ccc(OC)c(OC)c3)CC2)cc1OC", "note": "[Example 9, 1,4-bis{[3,4-bis(methyloxy)phenyl]sulfonyl}hexahydro-1H-1,4-diazepine]", "values": [
      {"measurement": "Emax", "setting": "AXOR109; 1 h, normalized to alpha-MSH system max", "result": "51 to 75", "unit": "%"},
      {"measurement": "EC50", "setting": "AXOR109; AXOR109 transfected melanophores", "result": "126 to 1000", "unit": "nM"},
      {"measurement": "Glucose excretion during the oral glucose tolerance test", "setting": "GK rats [1]", "result": "less in the treated group as compared to the vehicle group"},
      {"measurement": "Portal Vein Active GLP-1 Levels (% of Controls)", "setting": "CD rats; [4]", "result": "100.00 % of Controls"},
      {"measurement": "Portal Vein Total GLP-1 Levels (% of Controls)", "setting": "CD rats; [4]", "result": "100.00 % of Controls"},
      {"measurement": "Portal Vein Active GLP-1 Levels (% of Controls)", "setting": "CD rats; 5 min", "result": "175.27 % of Controls"},
      {"measurement": "Portal Vein Total GLP-1 Levels (% of Controls)", "setting": "CD rats; 5 min", "result": "182.84 % of Controls"},
      {"measurement": "Portal Vein Active GLP-1 Levels (% of Controls)", "setting": "CD rats; 15 min", "result": "352.50 % of Controls"},
      {"measurement": "Portal Vein Total GLP-1 Levels (% of Controls)", "setting": "CD rats; 15 min", "result": "308.38 % of Controls"},
      {"measurement": "Portal Vein Active GLP-1 Levels (% of Controls)", "setting": "CD rats; 30 min", "result": "298.49 % of Controls"},
      {"measurement": "Portal Vein Total GLP-1 Levels (% of Controls)", "setting": "CD rats; 30 min", "result": "263.34 % of Controls"},
      {"measurement": "Portal Vein Active GLP-1 Levels (% of Controls)", "setting": "CD rats; 60 min", "result": "286.95 % of Controls"},
      {"measurement": "Portal Vein Total GLP-1 Levels (% of Controls)", "setting": "CD rats; 60 min", "result": "246.00 % of Controls"},
      {"measurement": "active and total GLP-1 level compared to controls", "setting": "CD rats; in words", "result": "higher level of active and total GLP-1"},
      {"measurement": "glucose in glucose tolerance test", "setting": "GK rats [2]; day 1, 0.00 min", "result": 103.67},
      {"measurement": "glucose in glucose tolerance test", "setting": "GK rats [2]; day 1, 5.00 min", "result": 257.17},
      {"measurement": "glucose in glucose tolerance test", "setting": "GK rats [2]; day 1, 15.00 min", "result": 195.67},
      {"measurement": "glucose in glucose tolerance test", "setting": "GK rats [2]; day 1, 30.00 min", "result": 149.50},
      {"measurement": "glucose in glucose tolerance test", "setting": "GK rats [2]; day 1, 60.00 min", "result": 126.83},
      {"measurement": "glucose in glucose tolerance test", "setting": "GK rats [2]; day 1, 90.00 min", "result": 158.00},
      {"measurement": "glucose in glucose tolerance test", "setting": "GK rats [2]; day 1, 120.00 min", "result": 173.50},
      {"measurement": "glucose in glucose tolerance test", "setting": "GK rats [2]; day 1, −20.00 min", "result": 107.17},
      {"measurement": "glucose in glucose tolerance test", "setting": "GK rats [2]; day 3, 0.00 min", "result": 123.00},
      {"measurement": "glucose in glucose tolerance test", "setting": "GK rats [2]; day 3, 5.00 min", "result": 307.40},
      {"measurement": "glucose in glucose tolerance test", "setting": "GK rats [2]; day 3, 15.00 min", "result": 254.80},
      {"measurement": "glucose in glucose tolerance test", "setting": "GK rats [2]; day 3, 30.00 min", "result": 182.20},
      {"measurement": "glucose in glucose tolerance test", "setting": "GK rats [2]; day 3, 60.00 min", "result": 143.60},
      {"measurement": "glucose in glucose tolerance test", "setting": "GK rats [2]; day 3, 90.00 min", "result": 140.60},
      {"measurement": "glucose in glucose tolerance test", "setting": "GK rats [2]; day 3, 120.00 min", "result": 137.60},
      {"measurement": "glucose in glucose tolerance test", "setting": "GK rats [2]; day 3, −20.00 min", "result": 144.20},
      {"measurement": "glucose in glucose tolerance test", "setting": "GK rats [2]; day 9, 0.00 min", "result": 129.00},
      {"measurement": "glucose in glucose tolerance test", "setting": "GK rats [2]; day 9, 5.00 min", "result": 278.80},
      {"measurement": "glucose in glucose tolerance test", "setting": "GK rats [2]; day 9, 15.00 min", "result": 252.40},
      {"measurement": "glucose in glucose tolerance test", "setting": "GK rats [2]; day 9, 30.00 min", "result": 154.80},
      {"measurement": "glucose in glucose tolerance test", "setting": "GK rats [2]; day 9, 60.00 min", "result": 116.20},
      {"measurement": "glucose in glucose tolerance test", "setting": "GK rats [2]; day 9, 90.00 min", "result": 115.00},
      {"measurement": "glucose in glucose tolerance test", "setting": "GK rats [2]; day 9, 120.00 min", "result": 88.60},
      {"measurement": "glucose in glucose tolerance test", "setting": "GK rats [2]; day 9, −20.00 min", "result": 131.00},
      {"measurement": "glucose in glucose tolerance test", "setting": "GK rats [2]; day 16, 0.00 min", "result": 174.20},
      {"measurement": "glucose in glucose tolerance test", "setting": "GK rats [2]; day 16, 5.00 min", "result": 275.20},
      {"measurement": "glucose in glucose tolerance test", "setting": "GK rats [2]; day 16, 15.00 min", "result": 245.80},
      {"measurement": "glucose in glucose tolerance test", "setting": "GK rats [2]; day 16, 30.00 min", "result": 238.80},
      {"measurement": "glucose in glucose tolerance test", "setting": "GK rats [2]; day 16, 60.00 min", "result": 215.40},
      {"measurement": "glucose in glucose tolerance test", "setting": "GK rats [2]; day 16, 90.00 min", "result": 217.60},
      {"measurement": "glucose in glucose tolerance test", "setting": "GK rats [2]; day 16, 120.00 min", "result": 212.60},
      {"measurement": "glucose in glucose tolerance test", "setting": "GK rats [2]; day 16, −20.00 min", "result": 169.00},
      {"measurement": "development of hyperglycemia on day 16", "setting": "GK rats [2]; chronic study, day 16, in words", "result": "hyperglycemia had developed in rats receiving vehicle, but not in the rats treated with Example 9"},
      {"measurement": "glucagon (pM)", "setting": "GK rats [3]; day 3", "result": 21.31, "unit": "pM"},
      {"measurement": "glucose", "setting": "GK rats [3]; day 3", "result": 144.20, "unit": "mg/dL"},
      {"measurement": "insulin (pM)", "setting": "GK rats [3]; day 3", "result": 223.24, "unit": "pM"},
      {"measurement": "insulin levels", "setting": "GK rats [3]; day 3 and day 9, in words", "result": "normal insulin levels"},
      {"measurement": "glucagon (pM)", "setting": "GK rats [3]; day 9", "result": 21.67, "unit": "pM"},
      {"measurement": "glucose", "setting": "GK rats [3]; day 9", "result": 131.00, "unit": "mg/dL"},
      {"measurement": "insulin (pM)", "setting": "GK rats [3]; day 9", "result": 240.29, "unit": "pM"},
      {"measurement": "glucagon (pM)", "setting": "GK rats [3]; day 16", "result": 24.67, "unit": "pM"},
      {"measurement": "glucose", "setting": "GK rats [3]; day 16", "result": 169.00, "unit": "mg/dL"},
      {"measurement": "insulin (pM)", "setting": "GK rats [3]; day 16", "result": 108.09, "unit": "pM"},
      {"measurement": "glucagon levels", "setting": "GK rats [3]; day 16, in words", "result": "no increase in glucagons"},
      {"measurement": "glucagon (pM)", "setting": "GK rats [3]; pre dose", "result": 31.28, "unit": "pM"},
      {"measurement": "glucose", "setting": "GK rats [3]; pre dose", "result": 107.17, "unit": "mg/dL"},
      {"measurement": "insulin (pM)", "setting": "GK rats [3]; pre dose", "result": 269.67, "unit": "pM"},
      {"measurement": "development of hyperglycemia compared with vehicle", "setting": "GK rats [3]; sixteen days, in words", "result": "no hyperglycemia had developed"}
    ]}
  ]
}
